# Source: patent US20080312223A1, “Thiazole And Isothiazole Derivatives That Modulate The Activity Of CDK, GSK And Aurora Kinases” (ASTEX THERAPEUTICS LIMITED, priority 2004, published 2008)
# Where two headings read alike, the source gives them in different places.
# Key:
# AuroraB = target: T1, AuroraB (Homo sapiens, UniProt Q96GD4); experiment: Aurora B kinase assay (DELFIA); format: biochemical; settings: 15 μM ATP
# T1 construct: purchased ProQinase
# Procedure: Aurora activity was determined using a Dissociative Enhanced Lanthanide Fluoro Immuno Assay (DELFIA) with a GSK3-derived biotinylated peptide. The amount of phosphorylated peptide produced is quantified by means of a phospho-specific primary antibody and europium-labelled anti-rabbit IgG antibody using time-resolved fluorescence at λex=337 nm, λem=620 nm.
# Assay reactions are set up in 96 well plates in a total reaction volume of 25 μl with 5 nM AuroraB (ProQinase), 3 μM Biotin-[…], 15 μM ATP and various dilutions of compound in 25 mM TRIS pH 8.5, 0.1 mg/ml BSA, 0.025% Surfact-Amps 20, 5 mM MgCl2, 1 mM DTT, & 2.5% DMSO. The reaction is allowed to proceed for 90 minutes at room temperature before stopping with 100 μl STOP buffer containing 100 mM EDTA, 0.05% Surfact-amps20 (Pierce) and 1× Blocker™ BSA in TBS (Pierce).
# The detection step was carried out as described for AuroraA.
# CDK1/CyclinB = target: T2, CDK1/CyclinB (Homo sapiens, UniProt P06493); experiment: Activated CDK1/CyclinB kinase inhibitory activity assay; format: biochemical; settings: Example 11, read-out: IC50 in the CDK2 assay (stated under the CDK1/CyclinB assay, Example 11)
# T2 construct: purchased Upstate Discovery
# T2 sequence (P06493 whole entry): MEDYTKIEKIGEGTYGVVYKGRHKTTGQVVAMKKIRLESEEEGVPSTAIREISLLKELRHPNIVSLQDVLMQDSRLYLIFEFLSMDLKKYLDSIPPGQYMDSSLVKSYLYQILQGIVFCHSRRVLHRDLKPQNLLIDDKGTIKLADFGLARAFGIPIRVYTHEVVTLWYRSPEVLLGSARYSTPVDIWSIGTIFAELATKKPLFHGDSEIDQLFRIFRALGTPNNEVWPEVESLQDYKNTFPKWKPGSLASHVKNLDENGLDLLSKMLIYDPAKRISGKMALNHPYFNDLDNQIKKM
# T2 sequence (P14635 whole entry partner): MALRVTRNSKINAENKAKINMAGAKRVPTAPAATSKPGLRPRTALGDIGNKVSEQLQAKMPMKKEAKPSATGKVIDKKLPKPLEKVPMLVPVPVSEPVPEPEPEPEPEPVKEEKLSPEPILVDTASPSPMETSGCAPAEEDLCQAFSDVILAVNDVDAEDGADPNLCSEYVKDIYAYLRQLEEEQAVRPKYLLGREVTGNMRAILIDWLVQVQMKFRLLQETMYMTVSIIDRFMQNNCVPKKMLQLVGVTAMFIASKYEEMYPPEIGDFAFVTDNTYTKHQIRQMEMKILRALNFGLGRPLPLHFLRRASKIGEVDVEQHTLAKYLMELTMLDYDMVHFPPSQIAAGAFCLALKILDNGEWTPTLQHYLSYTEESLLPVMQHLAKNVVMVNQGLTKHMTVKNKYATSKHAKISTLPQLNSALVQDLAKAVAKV
# Procedure: (§1) Activated CDK2/CyclinA (Brown et al, Nat. Cell Biol., 1, pp 438-443, 1999; Lowe, E. D., et al Biochemistry, 41, pp 15625-15634, 2002) is diluted to 125 pM in 2.5× strength assay buffer (50 mM MOPS pH 7.2, 62.5 mM β-glycerophosphate, 12.5 mM EDTA, 37.5 mM MgCl2, […], 2.5 mM DTT, 2.5 mM sodium orthovanadate, 0.25 mg/ml bovine serum albumin), and 10 μl mixed with 10 μl of histone substrate mix (60 μl bovine histone H1 (Upstate Biotechnology, 5 mg/ml), 940 μl H2O, 35 μCi γ^33P-ATP) and added to 96 well plates along with 5 μl of various dilutions of the test compound in DMSO (up to 2.5%). The reaction is allowed to proceed for 2 to 4 hours before being stopped with an excess of ortho-phosphoric acid (5 μl at 2%).
# (§2) γ^33P-ATP which remains unincorporated into the histone H1 is separated from phosphorylated histone H1 on a Millipore MAPH filter plate. The wells of the MAPH plate are wetted with 0.5% orthophosphoric acid, and then the results of the reaction are filtered with a Millipore vacuum filtration unit through the wells. Following filtration, the residue is washed twice with 200 μl of 0.5% orthophosphoric acid. Once the filters have dried, 20 μl of Microscint 20 scintillant is added, and then counted on a Packard Topcount for 30 seconds. The % inhibition of the CDK2 activity is calculated and plotted in order to determine the concentration of test compound required to inhibit 50% of the CDK2 activity (IC50).
# CDK1/CyclinB assay.is identical to the CDK2/CyclinA above except that CDK1/CyclinB (Upstate Discovery) is used and the enzyme is diluted to 6.25 nM.
# Activated CDK2/CyclinA = Activated CDK2/CyclinA (Homo sapiens, UniProt P24941); experiment: Activated CDK2/CyclinA kinase inhibitory activity assay; format: biochemical; settings: Example 10
# Procedure: as §1
# as §2, with “The % inhibition of the CDK2 activity is calculated and plotted in order to determine the concentration of test compound required to inhibit 50% of the CDK2 activity (IC50).” left out
# GSK3β (human) = GSK3β (human) (Homo sapiens, UniProt P49841); experiment: Inhibitory activity against Glycogen Synthase Kinase-3; format: biochemical
# Sequence of GSK3β (human) (P49841 whole entry): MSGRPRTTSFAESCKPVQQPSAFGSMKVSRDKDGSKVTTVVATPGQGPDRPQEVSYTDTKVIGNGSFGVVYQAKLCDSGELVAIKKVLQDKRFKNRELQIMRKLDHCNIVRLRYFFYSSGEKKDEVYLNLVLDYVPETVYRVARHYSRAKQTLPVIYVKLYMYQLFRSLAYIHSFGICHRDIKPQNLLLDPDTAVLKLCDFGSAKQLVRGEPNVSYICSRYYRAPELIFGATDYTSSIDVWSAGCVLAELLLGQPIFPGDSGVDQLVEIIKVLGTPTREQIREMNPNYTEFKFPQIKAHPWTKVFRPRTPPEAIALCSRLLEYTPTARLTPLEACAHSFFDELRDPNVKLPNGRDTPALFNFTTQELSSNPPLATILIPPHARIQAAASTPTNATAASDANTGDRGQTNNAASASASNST
# Procedure: GSK3β (human) is diluted to a 10× working stock in 50 mM Tris pH 7.5, 0.1 mM EGTA, 0.1 mM sodium vanadate, 0.1% β-mercaptoethanol, 1 mg/ml BSA. One unit equals the incorporation of 1 nmol of phosphate per minute phospho-glycogen synthase peptide 2 per minute.
# In a final reaction volume of 25 μl, GSK3β (5-10 mU) is incubated with 8 mM MOPS 7.0, 0.2 mM EDTA, 20 μM […](p)EDEEE (phospho GS2 peptide), 10 mM MgAcetate and [γ-^33P-ATP] (specific activity approx 500 cpm/pmol, concentration as required). The reaction is initiated by the addition of Mg^2+[γ-^33P-ATP]. After incubation for 40 minutes at room temperature the reaction is stopped by the addition of 5 μl of a 3% phosphoric acid solution. 10 μl of the reaction is spotted onto a P30 filter mat and washed 3 times for 5 minutes in 50 mM phosphoric acid and once in methanol prior to drying and counting.
# HCT-116 cell line = experiment: Anti-proliferative activity, Alamar Blue assay; format: cell-based; settings: Homo sapiens, read-out: IC50 against the HCT-116 cell line
# Procedure: The anti-proliferative activities of compounds of the invention can be determined by measuring the ability of the compounds to inhibition of cell growth in a number of cell lines. Inhibition of cell growth is measured using the Alamar Blue assay (Nociari, M. M, Shalev, A., Benias, P., Russo, C. Journal of Immunological Methods 1998, 213, 157-167). The method is based on the ability of viable cells to reduce resazurin to its fluorescent product resorufin. For each proliferation assay cells are plated onto 96 well plates and allowed to recover for 16 hours prior to the addition of inhibitor compounds for a further 72 hours. At the end of the incubation period 10% (v/v) Alamar Blue is added and incubated for a further 6 hours prior to determination of fluorescent product at […]. In the case of the non-proliferating cell assay cells are maintained at confluence for 96 hour prior to the addition of inhibitor compounds for a further 72 hours. The number of viable cells is determined by Alamar Blue assay as before. In addition, any morphological changes are recorded. All cell lines can be obtained from ECACC (European Collection of cell Cultures).
# In particular, compounds of the invention were tested against the HCT-116 cell line (ECACC Reference: 91091005) derived from human colon carcinoma.
# T1 sequence (Q96GD4 whole entry): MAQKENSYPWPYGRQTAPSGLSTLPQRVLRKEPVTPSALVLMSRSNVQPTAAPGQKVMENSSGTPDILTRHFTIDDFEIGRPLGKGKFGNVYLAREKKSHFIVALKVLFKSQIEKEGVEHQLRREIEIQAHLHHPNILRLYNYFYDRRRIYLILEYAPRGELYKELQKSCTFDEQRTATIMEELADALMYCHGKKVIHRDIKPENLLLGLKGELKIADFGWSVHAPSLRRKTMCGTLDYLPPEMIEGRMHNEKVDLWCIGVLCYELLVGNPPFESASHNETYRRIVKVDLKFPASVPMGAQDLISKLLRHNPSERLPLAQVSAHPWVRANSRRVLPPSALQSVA
IC50 (AuroraB) [µM],IC50 (CDK1/CyclinB) [µM],IC50 (Activated CDK2/CyclinA) [µM],IC50 (GSK3β (human)) [µM],"IC50 (HCT-116 cell line; HCT-116, 72 hours, Alamar Blue) [µM]",SMILES,"IC50 (HCT-116 cell line; HCT-116, 72 h) [µM]"
< 0.1,< 10,< 10,< 1,< 15,"O=C(Nc1scnc1-c1nc2ccccc2[nH]1)c1c(F)cccc1F [Example 1, N-[4-(1H-benzoimidazol-2-yl)-thiazol-5-yl]-2,6-difluoro-benzamide]",–
–,< 10,< 10,–,< 1,"O=C(Nc1scnc1-c1nc2ccc(CN3CCOCC3)cc2[nH]1)c1c(F)cccc1F [Example 2, 2,6-difluoro-N-[4-(6-morpholin-4ylmethyl-1H-benzoimidazol-2-yl)-thiazol-5-yl]benzamide]",–

SMILES,IC50 (AuroraB) [µM],IC50 (CDK1/CyclinB) [µM],IC50 (Activated CDK2/CyclinA) [µM],IC50 (GSK3β (human)) [µM],"IC50 (HCT-116 cell line; HCT-116, 72 hours, Alamar Blue) [µM]","IC50 (HCT-116 cell line; HCT-116, 72 h) [µM]"
"O=C(Nc1csnc1-c1nc2cc(CN3CCOCC3)ccc2[nH]1)c1c(F)cccc1F [Example 3, 2,6-difluoro-N-[3-(5-morpholin-4-ylmethyl-1H-benzoimidazol-2-yl)-isothiazol-4-yl]-benzamide]",–,< 10,–,–,–,< 15
